Experiment: Stability experiment for the addition of tri-n-butylamine: sealed storage at 40-50° C., content (purity) by 1H-NMR
Assay type: physicochemical
Description: From the point of view of securing storage stability, for the amount of the first tertiary amine added, at least 2.0 mol % is added based on Compound (6), preferably at least 3.0 mol %, more preferably at least 4.0 mol %, and even more preferably at least 5.0 mol %. Note that evaluation of storage stability can be carried out by calculation of peak area derived from Compound (6) by gas chromatography or high performance liquid chromatography or calculation of integration value by 1H-NMR or P-NMR measurement before and after storage.
Potassium di-tert-butyl phosphate (6 g), dipotassium hydrogenphosphate (16.6 g), tetrabutylammonium hydrogen sulfate (0.81 g), tert-butyl methyl ether (28 mL) and water (21 mL) were added in a 100 mL two-neck round bottom flask equipped with a thermometer, and stirred under cooling with a water bath. At an internal temperature of 21° C., a solution of chloromethyl chlorosulfonate (5.88 g) dissolved in tert-butyl methyl ether (5.88 mL) was added dropwise over two hours at an internal temperature of 25° C. or lower. After termination of the drop wise addition, the solution was stirred for two hours, water (21 mL) and tert-butyl methyl ether (28 mL) were added thereto, the lower layer was separated and the organic layer was washed with an aqueous solution of 2M dipotassium hydrogen phosphate (21 mL). After washing twice with water (21 mL), bath temperature was set to 35° C., and the solution was concentrated under a reduced pressure to obtain 5.38 g of the title compound (yield: 86%). […]
As a result, contents (purity) of respectively 92% and 96% prior to storage were 89% and 70% after sealed storage at 40° C. for 12 hours and further at 50° C. for 12 hours, and were 87% and 0% (completely degraded) after sealed storage further at 50° C. for 10 hours, such that the one added with tri-n-butylamine was stable. The content (purity) was calculated by 1H-NMR measurements with 4-thiomethyl acetophenone as internal standard substance.

Compound: CC(C)(C)OP(=O)(OCCl)OC(C)(C)C [Not added, di-tert-butyl chloromethyl phosphate]
- Content (%) (Initial (prior to storage)): 96%
- Content (%) (Sealed storage at 40° C. for 12 hours then further at 50° C. for 12 hours): 70%
- Content (%) (Sealed storage further at 50° C. for 10 hours (after 40° C. 12 hours and 50° C. 12 hours)): 0%
